In PMC8878717, “The Oxime Ethers with Heterocyclic, Alicyclic and Aromatic Moiety as Potential Anti-Cancer Agents” (Molecules, 2022):
“And” between values parts separate entries of the source, which are not always exact repeats. Identical values can stand only once. Like-named read-outs stand apart in the source and are kept apart here.

Columns and labels:
HeLa cells = assay: MTT cytotoxicity test on HeLa cells; type: cell-based, human; settings: for cytotoxicity / cell viability of HeLa cells at low concentration: 1–10 μg/mL (1 and 10 μg/mL)
Method: Cytotoxic properties of all compounds were determined by 3-(4,5-dimethylthiazol-2-yl)-2,5-diphenyltetrazolium bromide (MTT) test reflecting cell viability. Cytotoxicity screening of all 27 compounds—2-acetylbenzofuran oxime (6) and its oxime ethers (1–5), as well as: 2-acetylthiophene (7–17), cyclohexanone (18–20), acetophenone (21–23), thiazole (24–25), benzothiazole (26–27) oxime ethers—was performed in vitro on human cervical adenocarcinoma (HeLa) cells as the representatives of cancerous cells.
(§1) 2-Acetylbenzofuran, 2-acetylbenzothiophene, 2-acetylthiophene, 2-acetylthiazole, cyclohexanone and acetophenone derivatives were used for in vitro cytotoxicity assays with cervical adenocarcinoma (HeLa), human dermal fibroblasts (HDF), lung epithelial carcinoma (A549), and intestinal epithelial carcinoma (Caco-2) cell lines. A549, Caco-2, and HeLa cells were obtained from Sigma-Aldrich (Germany), and HDF from Biokom (Poland). All cell lines were cultured according to the manufacturer’s protocol under sterile conditions in the presence of 4.9% CO2 at 37 °C. A549 cells were grown in F-12 medium containing 10% fetal bovine serum (FBS) and 1% penicillin/streptomycin. HDF cells were grown in DMEM (low glucose, with 2 mM glutamine) medium containing 10% fetal bovine serum (FBS) and 1% penicillin/streptomycin. Caco-2 cells were grown in EMEM medium containing 10% fetal bovine serum (FBS), 1% non-essential amino acids (NEAA) and 1% penicillin/streptomycin. HeLa cells were grown in DMEM (low glucose, with 2 mM glutamine) medium containing 10% fetal bovine serum (FBS) and 1% gentamycin. After thawing, cells were cultured until they reached sub-confluent state. The cells were then detached using 0.25% trypsin solution and seeded into 24-well or 96-well plates (3 × 10^3 cells per well) for further experiments. After 24 h growth, the tested compounds were added to the cell cultures in concentrations of 1, 10, 50, 100 and 250 μg mL^−1, respectively, and incubated for the next 24 h or 72 h. The MTT test, based on the ability to reduce 3-(4,5-dimethylthiazol 2-yl)-2,5-diphenyltetrazolium bromide (MTT) by mitochondrial dehydrogenases, was performed in triplicate to assess cell metabolic activity and viability. The plates were then read spectrophotometrically at a wavelength of 570 nm. The dose-dependence curves were charted directly on x-/y-axes, with the drug dosages on the x-axis and the cell viability (percentage of viable cells) on the y-axis.

[1] = tested on: human dermal fibroblasts (HDF); assay: MTT cytotoxicity test on HDF cells; type: cell-based; settings: Homo sapiens, Fibroblast, HDF
Method: (§2) Therefore, compounds showing the highest cytotoxicity (8, 9, 18, 22, 24–27) were further tested on normal human dermal fibroblasts (HDF), A549, Caco-2, and HeLa cells to compare their activity after 24 h and 72 h culture (Figure 5 and Figure 6).
as §1

A549 cells = assay: MTT cytotoxicity test on A549 cells; type: cell-based; settings: Homo sapiens
Method: as §2, §1

Caco-2 cells = assay: MTT cytotoxicity test on Caco-2 cells; type: cell-based, human; settings: Homo sapiens
Method: as §2, §1

[2] = MTT cytotoxicity test on HDF cells; type: cell-based, human; settings: human, human dermal fibroblasts (HDF); 100 μg/mL, 24 h exposure
Method: as §2, §1

[3] = Homo sapiens, HeLa, 24 h, HeLa, 24 h culture, MTT, read-out: EC50 for HeLa Cells
[4] = Homo sapiens, HeLa, 72 h, HeLa, 72 h, MTT, read-out: EC50 Value HeLa 72 h
[5] = 24 h, MTT, read-out: EC50 Value HDF 24 h
[6] = 72 h, MTT, read-out: EC50 Value HDF 72 h
[7] = A549, 24 h, MTT, read-out: EC50 Value A549 24 h
[8] = A549, 72 h, MTT, read-out: EC50 Value A549 72 h
[9] = Caco-2, 24 h, MTT, read-out: EC50 Value Caco-2 24 h
[10] = Caco-2, 72 h, MTT, read-out: EC50 Value Caco-2 72 h

CC(=NOCc1ccc(Cl)cc1Cl)c1cc2ccccc2o1 [Compound 1]
EC50 (HeLa cells; [3]): > 250 µg/mL and > 750 µM

CC(=NOCc1ccc(C(F)(F)F)cc1)c1cc2ccccc2o1 [Compound 2]
EC50 (HeLa cells; [3]): > 250 µg/mL and > 750 µM

CC(=NOCc1ccc(Br)cc1)c1cc2ccccc2o1 [Compound 3]
EC50 (HeLa cells; [3]): > 250 µg/mL and > 730 µM

CC(=NOCc1ccc([N+](=O)[O-])cc1)c1cc2ccccc2o1 [Compound 4]
EC50 (HeLa cells; [3]): > 250 µg/mL and > 810 µM

CC(=NOCc1c(F)cccc1F)c1cc2ccccc2o1 [Compound 5]
EC50 (HeLa cells; [3]): > 250 µg/mL and > 830 µM

CC(=NO)c1cc2ccccc2o1 [Compound 6, 2-acetylbenzofuran oxime]
EC50 (HeLa cells; [3]): > 250 µg/mL and > 1.43 mM

CC(=NOCc1ccc(Cl)cc1Cl)c1cccs1 [Compound 7]
cytotoxicity / cell viability of HeLa cells at low concentration (HeLa cells; MTT): increased cell viability
EC50 (HeLa cells; [3]): > 250 µg/mL and > 830 µM

CC(=NOCc1ccc(Br)cc1)c1cccs1 [Compound 8]
EC50 (HeLa cells; [3]): 610 µM
EC50 (HeLa cells; [4]): 40 µg/mL and 130 µM
EC50 [1, 5]: 127 µg/mL and 410 µM
EC50 [1, 6]: 118 µg/mL and 380 µM
EC50 (A549 cells; [7]): 194 µg/mL and 620 µM
EC50 (A549 cells; [8]): 228 µg/mL and 740 µM
EC50 (Caco-2 cells; [9]): 230 µg/mL and 740 µM
EC50 (Caco-2 cells; [10]): 118 µg/mL and 380 µM

CC(=NOCc1ccc([N+](=O)[O-])cc1)c1cccs1 [Compound 9]
EC50 (HeLa cells; [3]): 460 µM
EC50 (HeLa cells; [4]): 6.9 µg/mL and 20 µM
EC50 [1, 5]: 172 µg/mL and 620 µM
EC50 [1, 6]: 44.7 µg/mL and 160 µM
EC50 (A549 cells; [7]): 107 µg/mL and 390 µM
EC50 (A549 cells; [8]): 131 µg/mL and 470 µM
EC50 (Caco-2 cells; [9]): 78 µg/mL and 280 µM
EC50 (Caco-2 cells; [10]): 105 µg/mL and 380 µM

COc1ccc([N+](=O)[O-])c(CON=C(C)c2cccs2)c1 [Compound 10]
EC50 (HeLa cells; [3]): > 250 µg/mL and > 820 µM

CC(=NOCCN(C)C)c1cccs1 [Compound 11]
EC50 (HeLa cells; [3]): > 250 µg/mL and > 1.18 mM

CC(=NOCCN1CCOCC1)c1cccs1 [Compound 12]
cytotoxicity / cell viability of HeLa cells at low concentration (HeLa cells; MTT): increased cell viability
EC50 (HeLa cells; [3]): > 250 µg/mL and > 980 µM

C/C(=N\OCCN)c1cccs1 [Compound 13, (E)-1-(thiophen-2-yl)ethanone O-2-aminoethyl oxime]
EC50 (HeLa cells; [3]): > 250 µg/mL and > 1.36 mM

CCN(CC)CCO/N=C(\C)c1cccs1 [Compound 14, (E)-1-(thiophen-2-yl)ethanone O-2-(diethylamino)ethyl oxime]
EC50 (HeLa cells; [3]): > 250 µg/mL and > 1.04 mM

C/C(=N\OCCCN)c1cccs1 [Compound 15, (E)-1-(thiophen-2-yl)ethanone O-3-aminopropyl oxime]
EC50 (HeLa cells; [3]): > 250 µg/mL and > 1.1 mM

CC(=NOCCCN(C)C)c1cccs1 [Compound 16]
cytotoxicity / cell viability of HeLa cells at low concentration (HeLa cells; MTT): increased cell viability
EC50 (HeLa cells; [3]): > 250 µg/mL and > 1.1 mM

CC(=NOCC(=O)O)c1cccs1 [Compound 17]
cytotoxicity / cell viability of HeLa cells at low concentration (HeLa cells; MTT): increased cell viability
EC50 (HeLa cells; [3]): > 250 µg/mL and > 1.25 mM

O=C(O)CON=C1CCCCC1 [Compound 18, 2-(cyclohexylideneaminoxy)acetic acid]
viability of HeLa cells (of control) (HeLa cells; 100–250 μg/mL, MTT): below 20%
EC50 (HeLa cells; [3]): 32.3 µg/mL and 190 µM
EC50 (HeLa cells; [4]): 4.9 µg/mL and 30 µM
viability at 100 µg/mL (HeLa cells; Homo sapiens, HeLa, 100 μg/mL, 24 h exposure): ~20%
viability at 24 h, 100 μg/mL [2]: ~20%
EC50 [1, 5]: 43.7 µg/mL and 260 µM
EC50 [1, 6]: 14.7 µg/mL and 90 µM
EC50 ([1]; 72 h culture, read-out: EC50 HDF): 90 to 100 µM
EC50 (A549 cells; [7]): 47.8 µg/mL and 280 µM
EC50 (A549 cells; [8]): 17.9 µg/mL and 100 µM
EC50 (A549 cells; A549, 72 h, read-out: EC50 A549): 90 to 100 µM
viability at 100 µg/mL (A549 cells; A549, 100 μg/mL, 24 h exposure): ~20%
EC50 (Caco-2 cells; [9]): 44.4 µg/mL and 260 µM
EC50 (Caco-2 cells; [10]): 17.5 µg/mL and 100 µM
EC50 (Caco-2 cells; Caco-2, 72 h, read-out: EC50 Caco-2): 90 to 100 µM
viability at 100 µg/mL (Caco-2 cells; Caco-2, 100 μg/mL, 24 h exposure): ~20%

CN(C)CCON=C1CCCCC1 [Compound 19]
EC50 (HeLa cells; [3]): > 250 µg/mL and > 1.36 mM

C1CCC(=NOCCN2CCOCC2)CC1 [Compound 20]
EC50 (HeLa cells; [3]): > 250 µg/mL and > 1.1 mM

CC(=NOCCN(C)C)c1ccccc1 [Compound 23]
EC50 (HeLa cells; [3]): 233 µg/mL and 1.13 mM

COc1ccc(CO/N=C(\C)c2nccs2)cc1 [Compound 24, (E)-1-(thiazol-2-yl)ethanone O-4-methoxybenzyl oxime]
EC50 (HeLa cells; [3]): 110 µg/mL and 420 µM
EC50 (HeLa cells; [4]): 8.7 µg/mL and 30 µM
EC50 [1, 5]: 35.3 µg/mL and 130 µM
EC50 [1, 6]: 30.6 µg/mL and 120 µM
EC50 (A549 cells; [7]): > 250 µg/mL and > 950 µM
EC50 (A549 cells; [8]): 35.7 µg/mL and 140 µM
EC50 (Caco-2 cells; [9]): > 250 µg/mL and > 950 µM
EC50 (Caco-2 cells; [10]): 69.1 µg/mL and 260 µM

C/C(=N\OCc1ccc(Br)cc1)c1nccs1 [Compound 25, (E)-1-(thiazol-2-yl)ethanone O-4-bromobenzyl oxime]
EC50 (HeLa cells; [3]): 130 µg/mL and 420 µM
EC50 (HeLa cells; [4]): 47.3 µg/mL and 150 µM
EC50 [1, 5]: 37.9 µg/mL and 120 µM
EC50 [1, 6]: 25.7 µg/mL and 80 µM
EC50 (A549 cells; [7]): > 250 µg/mL and > 800 µM
EC50 (A549 cells; [8]): 79.9 µg/mL and 260 µM
EC50 (Caco-2 cells; [9]): 70.8 µg/mL and 230 µM
EC50 (Caco-2 cells; [10]): 50.5 µg/mL and 160 µM
melting point: 67 to 70 °C

CC(=NOCc1ccc(Cl)cc1Cl)c1cc2ccccc2s1 [Compound 26, (E)-1-(benzothiophene-2-yl)ethanone O-2,4-dichlorobenzyl oxime]
EC50 (HeLa cells; [3]): 121 µg/mL and 350 µM
EC50 (HeLa cells; [4]): 8.18 µg/mL and 20 µM
EC50 [1, 5]: 135 µg/mL and 380 µM
EC50 [1, 6]: 25.7 µg/mL and 70 µM
EC50 (A549 cells; [7]): 199 µg/mL and 570 µM
EC50 (A549 cells; [8]): 177 µg/mL and 510 µM
EC50 (Caco-2 cells; [9]): > 250 µg/mL and > 710 µM
EC50 (Caco-2 cells; [10]): 50.1 µg/mL and 140 µM
melting point: 113 to 117 °C
